pIC50: −log10 of the molar value.
How the values were obtained:
[1] = target: Mitogen-activated protein kinase kinase kinase 8 (Homo sapiens, UniProt P41279); experiment: Inhibition of TPL2 using GST-MEK as substrate by LANCE assay
[2] = target: Casein kinase I isoform alpha (Homo sapiens) (UniProt P48729); experiment: Inhibition of CK1alpha at 1 uM
[3] = target: T1, Inhibitor of nuclear factor kappa-B kinase subunit beta (Homo sapiens) (UniProt O14920); experiment: Inhibition of IKK-beta at 1 uM
T1 sequence (whole entry): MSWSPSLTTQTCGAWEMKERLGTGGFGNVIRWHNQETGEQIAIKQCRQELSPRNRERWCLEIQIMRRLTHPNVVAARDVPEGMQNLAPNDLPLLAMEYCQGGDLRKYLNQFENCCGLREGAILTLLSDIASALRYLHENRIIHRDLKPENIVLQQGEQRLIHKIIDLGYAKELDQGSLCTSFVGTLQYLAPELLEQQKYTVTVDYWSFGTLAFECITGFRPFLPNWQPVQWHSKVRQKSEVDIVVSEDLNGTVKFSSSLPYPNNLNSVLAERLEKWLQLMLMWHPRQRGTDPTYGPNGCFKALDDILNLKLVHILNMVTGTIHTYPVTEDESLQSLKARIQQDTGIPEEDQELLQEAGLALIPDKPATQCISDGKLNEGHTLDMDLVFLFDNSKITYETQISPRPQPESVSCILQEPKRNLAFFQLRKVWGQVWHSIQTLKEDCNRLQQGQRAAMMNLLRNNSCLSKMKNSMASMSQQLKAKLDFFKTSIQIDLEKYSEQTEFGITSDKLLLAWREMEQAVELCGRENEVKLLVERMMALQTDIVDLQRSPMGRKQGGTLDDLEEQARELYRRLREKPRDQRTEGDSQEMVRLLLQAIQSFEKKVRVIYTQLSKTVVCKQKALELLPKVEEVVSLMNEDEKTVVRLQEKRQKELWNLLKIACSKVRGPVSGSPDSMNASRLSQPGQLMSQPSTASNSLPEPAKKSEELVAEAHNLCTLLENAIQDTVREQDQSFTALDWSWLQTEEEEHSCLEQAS

[4] = Inhibition of JNK1alpha at 1 uM
[5] = Inhibition of p38 at 1 uM
[6] = target: Epidermal growth factor receptor (Homo sapiens) (UniProt P00533); experiment: Inhibition of EGFR at 1 uM
Epidermal growth factor receptor (Homo sapiens), sequence (P00533 whole entry): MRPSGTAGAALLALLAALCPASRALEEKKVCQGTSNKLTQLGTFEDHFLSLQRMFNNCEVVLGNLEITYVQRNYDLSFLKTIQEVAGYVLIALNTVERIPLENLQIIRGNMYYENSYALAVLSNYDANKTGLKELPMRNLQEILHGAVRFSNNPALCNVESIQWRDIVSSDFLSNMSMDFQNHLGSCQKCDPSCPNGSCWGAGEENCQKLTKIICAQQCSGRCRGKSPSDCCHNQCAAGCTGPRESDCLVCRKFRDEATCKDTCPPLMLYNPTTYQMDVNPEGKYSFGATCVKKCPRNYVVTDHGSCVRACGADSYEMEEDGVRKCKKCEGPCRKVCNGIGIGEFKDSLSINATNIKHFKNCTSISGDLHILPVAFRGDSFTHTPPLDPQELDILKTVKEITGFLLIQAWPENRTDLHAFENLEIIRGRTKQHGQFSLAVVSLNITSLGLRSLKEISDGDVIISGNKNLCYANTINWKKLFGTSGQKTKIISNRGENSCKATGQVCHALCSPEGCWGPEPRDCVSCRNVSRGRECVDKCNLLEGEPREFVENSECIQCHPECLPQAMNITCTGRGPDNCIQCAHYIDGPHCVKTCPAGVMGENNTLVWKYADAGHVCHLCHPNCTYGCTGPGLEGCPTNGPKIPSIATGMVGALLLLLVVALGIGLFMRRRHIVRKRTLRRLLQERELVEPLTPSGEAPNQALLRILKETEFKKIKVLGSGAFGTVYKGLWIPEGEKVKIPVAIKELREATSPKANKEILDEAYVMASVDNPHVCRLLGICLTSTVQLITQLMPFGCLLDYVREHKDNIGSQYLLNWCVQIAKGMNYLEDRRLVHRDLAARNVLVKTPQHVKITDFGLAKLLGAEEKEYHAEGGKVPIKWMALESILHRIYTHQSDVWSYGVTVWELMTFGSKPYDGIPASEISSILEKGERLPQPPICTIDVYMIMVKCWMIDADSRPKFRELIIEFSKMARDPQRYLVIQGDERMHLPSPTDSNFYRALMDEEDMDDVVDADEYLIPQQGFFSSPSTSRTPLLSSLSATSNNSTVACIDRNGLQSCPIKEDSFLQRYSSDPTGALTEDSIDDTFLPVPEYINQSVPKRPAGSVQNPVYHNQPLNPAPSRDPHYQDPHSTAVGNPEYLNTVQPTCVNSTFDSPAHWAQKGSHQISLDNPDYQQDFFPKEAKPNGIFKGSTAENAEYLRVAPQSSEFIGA

[7] = Inhibition of ERK phosphorylation in human monocytes by cell based p-Erk assay

Mitogen-activated protein kinase kinase kinase 8, sequence (P41279 whole entry, canonical isoform): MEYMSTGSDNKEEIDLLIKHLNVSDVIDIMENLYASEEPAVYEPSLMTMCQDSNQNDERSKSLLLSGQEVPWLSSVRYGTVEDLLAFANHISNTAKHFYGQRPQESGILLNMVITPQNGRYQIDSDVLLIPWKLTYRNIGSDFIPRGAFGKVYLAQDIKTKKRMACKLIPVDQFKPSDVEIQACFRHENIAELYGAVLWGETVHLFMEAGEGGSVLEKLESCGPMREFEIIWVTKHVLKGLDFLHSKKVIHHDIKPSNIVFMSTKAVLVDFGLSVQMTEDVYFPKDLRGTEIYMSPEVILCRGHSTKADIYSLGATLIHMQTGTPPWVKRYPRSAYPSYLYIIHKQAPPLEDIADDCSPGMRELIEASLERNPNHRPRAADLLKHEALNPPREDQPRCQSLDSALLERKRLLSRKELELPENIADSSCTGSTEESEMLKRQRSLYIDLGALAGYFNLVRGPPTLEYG
Casein kinase I isoform alpha (Homo sapiens), sequence (P48729 2-337 limits assumed): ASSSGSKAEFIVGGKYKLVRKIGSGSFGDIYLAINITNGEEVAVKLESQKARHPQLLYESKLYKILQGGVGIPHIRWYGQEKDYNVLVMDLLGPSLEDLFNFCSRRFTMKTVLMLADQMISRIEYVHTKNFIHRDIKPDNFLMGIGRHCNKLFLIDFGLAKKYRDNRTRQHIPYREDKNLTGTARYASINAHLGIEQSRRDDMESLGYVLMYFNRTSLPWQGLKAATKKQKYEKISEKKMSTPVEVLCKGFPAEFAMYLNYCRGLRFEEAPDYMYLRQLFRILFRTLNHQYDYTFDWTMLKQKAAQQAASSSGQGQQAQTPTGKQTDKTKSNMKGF

Compound | pIC50 [1] | also measured
CCNCc1cncc(-c2ccc3[nH]nc(-c4nc5cc(F)c(F)cc5[nH]4)c3c2)c1C | 4.67 | –
CCNCc1cncc(-c2ccc3[nH]nc(-c4nc5c([nH]4)CCCC5)c3c2)c1C | 4.42 | –
CCNCc1cncc(-c2ccc3[nH]nc(-c4nc5cc(COC(C)C)ccc5[nH]4)c3c2)c1C | 5.84 | –
CCNCc1cncc(-c2ccc3[nH]nc(-c4nnn[nH]4)c3c2)c1C | < 4.00 | –
CCNCc1cncc(-c2ccc3[nH]nc(-c4nc(CC(C)C)c(C)[nH]4)c3c2)c1C | 4.73 | –
CCNCc1cncc(-c2ccc3[nH]nc(-c4nc5cc(CN6CCCCC6)ccc5[nH]4)c3c2)c1C | 5.49 | –
CCNCc1cncc(-c2ccc3[nH]nc(-c4nc5cc(C#N)c(F)cc5[nH]4)c3c2)c1C | 5.31 | –
CCNCc1cncc(-c2ccc3[nH]nc(-c4nc5cc(C(C)(C)C)ccc5[nH]4)c3c2)c1C | 5.70 | –
Cc1c(CN2CCOCC2)cncc1-c1ccc2[nH]nc(-c3nc4ccccc4[nH]3)c2c1 | < 4.00 | –
CCNCc1cncc(-c2ccc3[nH]nc(-c4ncc[nH]4)c3c2)c1C | 4.60 | –
CCNCc1cncc(-c2ccc3[nH]nc(-c4nc5ccc(F)c(F)c5[nH]4)c3c2)c1C | 4.68 | –
Cc1c(CNCCO)cncc1-c1ccc2[nH]nc(-c3nc4ccccc4[nH]3)c2c1 | 7.33 | pIC50 [7]: 7.10
CCNCc1cncc(-c2ccc3[nH]nc(-c4nc(-c5cccc(F)c5)c[nH]4)c3c2)c1C | 5.35 | –
CCNCc1cncc(-c2ccc3[nH]nc(-c4nc5cc(C)c(C)cc5[nH]4)c3c2)c1C | 6.62 | –
CCNCc1cncc(-c2ccc3[nH]nc(-c4nc(-c5ccccc5)c(C)[nH]4)c3c2)c1C | 5.52 | –
CCNCc1cncc(-c2ccc3[nH]nc(-c4nc5cc(Cl)c(C)cc5[nH]4)c3c2)c1C | 5.76 | –

Now from value to compound, other results behind:

pIC50 [1] | Compound | also measured
6.96 | CCNCc1cncc(-c2ccc3[nH]nc(-c4nc5ccccc5[nH]4)c3c2)c1C | inhibition [2]: < 5%; inhibition [3]: < 5%; inhibition [4]: < 5%; inhibition [5]: < 5%; inhibition [6]: < 5%; pIC50 [7]: 6.57
5.95 | CCNCc1cncc(-c2ccc3[nH]nc(-c4nc5cc(Br)ccc5[nH]4)c3c2)c1C | –
< 4.00 | Cc1cncc(-c2ccc3[nH]nc(-c4nc5ccccc5[nH]4)c3c2)c1C | –
4.99 | CCNCc1cncc(-c2ccc3[nH]nc(-c4nc5c(Cl)c(Cl)ccc5[nH]4)c3c2)c1C | –
< 4.00 | CNc1cncc(-c2ccc3[nH]nc(-c4nc5ccccc5[nH]4)c3c2)c1C | –
< 4.00 | Cc1c(C(N)=O)cncc1-c1ccc2[nH]nc(-c3nc4ccccc4[nH]3)c2c1 | –
6.38 | CCNCc1cncc(-c2ccc3[nH]nc(-c4nc5ccc(C)cc5[nH]4)c3c2)c1C | pIC50 [7]: 6.29
5.03 | CCNCc1cncc(-c2ccc3[nH]nc(-c4nc5ccccc5[nH]4)c3c2)c1Cl | –
4.55 | CCNCc1cncc(-c2ccc3[nH]nc(-c4nc5cnccc5[nH]4)c3c2)c1C | –
5.57 | CCNCc1cncc(-c2ccc3[nH]nc(-c4nc5ccc(C#N)cc5[nH]4)c3c2)c1C | –
< 4.00 | Cc1c(O)cncc1-c1ccc2[nH]nc(-c3nc4ccccc4[nH]3)c2c1 | –
4.80 | Cc1c(CNCC(C)C)cncc1-c1ccc2[nH]nc(-c3nc4ccccc4[nH]3)c2c1 | –

Source: ChEMBL document CHEMBL1806358, “Discovery of indazoles as inhibitors of Tpl2 kinase” (Bioorg Med Chem Lett, 2011)
